Values of other authors in patent US20200061109A1, “ZINC CHLORIDE HYDROXIDE HAVING EXCELLENT ZINC ION SUSTAINED-RELEASABILITY AND PRODUCTION METHOD THEREFOR” (JFE MINERAL COMPANY, LTD., priority 2016, published 2020).

Legend:
skin = settings: in vivo

In the case of [Zn+2] [Zn^2+ ions], the “concentration at which no toxicity is shown against fibroblasts” value (fibroblasts) is listed as “no more than 500 μmol/L” and the “level that increases inflammatory cell infiltration of skin and significantly delays re-epithelialization” value (skin) is listed as “not less than 15 mmol/L”.
